Measurements: patent US12485117B2, “Compositions and methods for activating signaling through the CB1 cannabinoid receptor for treating and preventing diseases and disorders characterized by abnormal cellular accumulation of sphingolipids such as sphingomyelin” (Wylder Nation Foundation, priority 2018, dated 2025)

Experiments:
wt and ASMko mice [1] = assay: Weekly body weight during 8-week oral treatment; type: in vivo, mouse; conditions: 0.3 mg/kg oral gavage every three days, 8 weeks
Protocol: We divided wt and ASMko into four groups: wt, wt+FAAHi, ASMko, ASMko+FAAHi. Each group included 14 animals with females and males in equal proportions.
(§1) Treatment started at 7 weeks of age and continued for 8 weeks. PF-04457845 was dissolved in 0.9% NaCl and delivered through oral gavage at a dose of 0.3 mg/kg every three days. We chose this dose based on the studies published by Ahn et al., (J Pharm Exp Ther 2011). Control groups received same volume of 0.9% NaCl without PF-04457845.
Behavioral analyses were performed in the last 2 weeks of treatment while still administering the drug. Then, half of the mice were sacrificed for biochemical and histological analysis and the other half continued receiving the treatment to monitor life span.

wt and ASMko mice [2] = assay: Elevated Plus Maze test; type: in vivo, mouse; conditions: 0.3 mg/kg every three days
Protocol: FIGS. 13A-13C show the effect of PF-04457845 treatment on various behavioral functions. […] (n=14; **p<0.01, *p<0.05).
as §1
Mood alterations were monitored by the Tail Suspension Test (FIG. 13B) and by the Elevated Plus Maze test (FIG. 13C) that give an idea of depressive state and anxiety, respectively. […] PF-04457845 treatment had no effect in the behavior of wt mice.

Purkinje cells = assay: Purkinje cell death by Calbindin1 staining in the cerebellum; type: in vivo, mouse; conditions: 0.3 mg/kg every three days
Protocol: FIGS. 15A-15D show representative images of Purkinje cells from wildtype and ASMko mice treated or not treated with PF-04457845.
as §1
Purkinje cell death was analyzed by Calbindin1 staining in the cerebellum of wt and ASMko treated or not with PF-04457845 (FIG. 15A). Loss of Purkinje cells was prominent in non-treated ASMko mice compared to wt. […] PF-04457845 treatment had no effect on Purkinje cell survival in wt mice. We also analyzed Lysosomal size by staining Purkinje cells of the cerebellum for Lamp1 expression in samples from wt and ASMko mice treated or not treated with PF-04457845 (FIG. 15B). Lysosomal size was increased by an average 45% in the non-treated ASMko compared to wt mice consistent with sphingomyelin accumulation in these organelles. This alteration was prevented to a significant extent (35%) in the ASMko mice treated with PF.

microglia = assay: Microglia number and morphology by iba-1 immunofluorescence after 8-week treatment; type: in vivo, mouse; conditions: 0.3 mg/kg every three days
Protocol: Representative images of microglia stained for iba-1 (green) in the cerebellum, hippocampus and cortex of wt and ASMko mice treated or not with PF-04457845. […] Graphs show mean±SEM microglia number and cell body area (n=7, **p<0.01, *p<0.05).
as §1
Brain inflammation was determined by analysis of glial cells in the cerebellum, hippocampus and cortex. The number and morphology of microglia was analyzed by immunofluorescence staining with the marker iba-1 (FIG. 16). […] PF-04457845 treatment had no effect in microglia of wt mice. The amount of astrocytes was analyzed by immunofluorescence with the marker GFAP (FIG. 17). […] PF-04457845 treatment had no effect in astrocytes of wt mice (FIG. 17).

wt and ASMko mice [3] = assay: Acute toxicity: sphingomyelin levels by enzymatic assay in brain areas and liver; type: in vivo, mouse; conditions: 48 hours
Protocol: (§2) We divided wt and ASMko mice of 4.5 months of age in six experimental groups: ASMko control (n=3), ASMko low dose (n=3), ASMko intermediate dose (n=3), ASMko high dose (n=3), wt control (n=3), wt high dose (n=3). PF-04457845, provided as powder, was dissolved in 0.9% NaCl and administered to mice through oral gavage. Vehicle groups received same volume of 0.9% NaCl.
Doses have been calculated taking into account that used in the study conducted in healthy humans (Li et al., Br J Clin Pharmacol 2011, 73:706-716). […] Estimating an average weight of 60 kg for an adult human the daily dose equals to 0.0083 mg/kg. This dose was very similar to that used in our first 8 week-long treatment with PF-04457845 in ASMko mice, which according to the formulas to calculate equivalence between humans and mice (Nair and Jacob J Basic Clin Pharma 2016, 7:27-31) corresponded to a daily HED dose of 0.0072 mg/kg. For this toxicity study we agreed to take into account the human dose: 0.0083 mg/kg. Formula conversion to mouse dose: HED (mg/kg)=Mouse dose (mg/kg)×mouseKm/Human Km).
Sphingomyelin levels were quantified by enzymatic assay in extracts from different brain areas (hippocampus, cerebellum and cortex) and from liver of wt and ASMko mice treated with PF-04457845 at 0.1 mg/kg, 1 mg/kg and 5 mg/kg or with vehicle (FIG. 26). The results confirmed the remarkable increase of sphingomyelin levels in the vehicle-treated ASMko mice with respect to wt at this advanced stage of the disease (168% in hippocampus, 170% in cerebellum, 139% in cortex and 216% in liver with respect to wt values considered 100%).

wt and ASMko mice [4] = assay: Acute toxicity: SM and ceramide levels in blood; type: in vivo, mouse
Protocol: as §2
After these 48 hours and immediately before termination we collected blood from mice and prepared serum by leaving blood samples 30 minutes for clotting at room temperature and by collecting the supernatant after centrifugation at 6000 rpm for 10 minutes. Following termination, mice were transcardially perfused with phosphate-buffered saline (PBS).
SM and ceramide levels were also monitored in the blood of wt and ASMko mice with and without PF-04457845 treatment as a readout of acute toxicity.

[5] = in vivo; cited from earlier work
[6] = cited from earlier work
[7] = ASMko mice, single dose of 5 mg/kg
[8] = wt mice, single dose of 5 mg/kg

## O=C(Nc1cccnn1)N1CCC(=Cc2cccc(Oc3ccc(C(F)(F)F)cn3)c2)CC1 [PF-04457845]
Wt and ASMko mice [1]; ASMko mice
  body weight gain: significantly improved
Wt and ASMko mice [1]; wt mice
  body weight gain: not affected
Wt and ASMko mice [2]; ASMko mice
  behavior in Elevated Plus Maze test (anxiety): normalized
Wt and ASMko mice [2]; wt mice
  behavior in Elevated Plus Maze test: no effect
Purkinje cells; ASMko mice, cerebellum
  Purkinje cell death (Calbindin1): prevented cell death in a significant percentage of cells
Purkinje cells; wt mice
  Purkinje cell survival: no effect
microglia; ASMko mice
  microglia amoeboid morphology in the hippocampus and cerebellum: normalized to a significant extent
  microglia morphology in cerebellum (iba-1): normalized their morphology
  microglia number in cerebellum (iba-1): reduced microglia number
microglia; wt mice
  microglia: no effect
Wt and ASMko mice [3]; [7]
  sphingomyelin levels in hippocampus: high variability
  sphingomyelin levels reduced in cerebellum: 21%
  sphingomyelin levels reduced in cortex: 8%
  sphingomyelin levels reduced in liver: 6%
Wt and ASMko mice [3]; single dose of 0.1 mg/kg
  reduction of sphingomyelin in brain areas and liver: No statistically significant reduction
Wt and ASMko mice [3]; single dose of 1 mg/kg
  reduction of sphingomyelin in brain areas and liver: No statistically significant reduction
Wt and ASMko mice [3]; [8]
  sphingomyelin levels reduced in cerebellum: 17%
  sphingomyelin levels reduced in cortex: 23%
  sphingomyelin levels reduced in hippocampus: 13%
  sphingomyelin levels reduced in liver: 34%
Wt and ASMko mice [4]; ASMko mice, single doses 0.1, 1, 5 mg/kg (data not shown)
  SM levels in blood: moderate dose-dependent decrease
Wt and ASMko mice [4]; single dose of 0.1 mg/kg (data not shown)
  ceramide levels in blood: high variability with a tendency to increase
Wt and ASMko mice [4]; single dose of 1 mg/kg (data not shown)
  ceramide levels in blood: decreased
Wt and ASMko mice [4]; single dose of 5 mg/kg (data not shown)
  ceramide levels in blood: decreased
[5]
  brain blood barrier crossing: can cross the brain blood barrier
[6]; Li et al., 2011
  tolerability of much higher doses in healthy humans: well tolerated
[6]; Ling et al., BJCP 2011
  safety in healthy humans: safety in healthy humans has been already demonstrated
[6]; once daily, healthy humans, Li et al., Br J Clin Pharmacol 2011
  dose sufficient, well tolerated and providing maximal effects on FAAH activity and fatty acid amide elevation: 0.5 mg
